# How the values were obtained:
# [1] = molecular target: D(2) dopamine receptor (Homo sapiens, UniProt P14416); test: Displacement of [3H]-(R)-(+)7-OH-DPAT from human dopamine D2 receptor expressed in HEK293 cell membranes incubated for 90 mins by microbeta scintillation counting analysis
# [2] = molecular target: D(3) dopamine receptor (Homo sapiens, UniProt P35462); test: Displacement of [3H]-(R)-(+)7-OH-DPAT from human dopamine D3 receptor expressed in HEK293 cell membranes incubated for 90 mins by microbeta scintillation counting analysis
# D(3) dopamine receptor, sequence (P35462 whole entry): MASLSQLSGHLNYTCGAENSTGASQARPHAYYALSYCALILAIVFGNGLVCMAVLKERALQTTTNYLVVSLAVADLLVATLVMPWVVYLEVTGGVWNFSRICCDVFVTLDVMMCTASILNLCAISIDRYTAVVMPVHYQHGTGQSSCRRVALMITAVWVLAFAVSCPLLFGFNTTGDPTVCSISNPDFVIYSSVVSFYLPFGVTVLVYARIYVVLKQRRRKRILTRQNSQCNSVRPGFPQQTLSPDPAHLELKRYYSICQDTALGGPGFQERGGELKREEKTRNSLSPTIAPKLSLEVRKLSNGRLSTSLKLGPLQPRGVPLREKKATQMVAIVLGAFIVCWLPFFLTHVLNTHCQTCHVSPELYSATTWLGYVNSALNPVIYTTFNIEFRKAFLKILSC
# D(2) dopamine receptor, sequence (P14416 whole entry): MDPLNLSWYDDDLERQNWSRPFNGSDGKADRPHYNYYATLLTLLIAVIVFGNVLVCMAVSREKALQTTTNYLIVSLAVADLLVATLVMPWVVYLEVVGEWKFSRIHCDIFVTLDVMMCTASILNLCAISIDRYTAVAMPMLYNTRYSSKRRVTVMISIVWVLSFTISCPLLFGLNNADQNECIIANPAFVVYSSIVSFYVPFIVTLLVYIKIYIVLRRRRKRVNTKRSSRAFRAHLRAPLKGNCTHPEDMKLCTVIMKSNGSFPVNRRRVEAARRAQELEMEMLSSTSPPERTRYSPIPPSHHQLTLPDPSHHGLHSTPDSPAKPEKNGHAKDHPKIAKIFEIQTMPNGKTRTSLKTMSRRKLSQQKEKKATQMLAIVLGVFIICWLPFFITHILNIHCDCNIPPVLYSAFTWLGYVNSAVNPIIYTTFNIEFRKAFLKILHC
SMILES,Ki [1],Ki [2]
CN(CC[C@@H]1CC[C@@H](CNC(=O)c2cc3ccccc3[nH]2)C1)[C@@H]1Cc2cccc3[nH]c(=O)n(c23)C1,4.6 nM,77 nM
CN(CC[C@@H]1CC[C@H](CNC(=O)c2cc3ccccc3[nH]2)C1)[C@@H]1Cc2cccc3[nH]c(=O)n(c23)C1,2 nM,20 nM

# Source: BindingDB's records for PubMed 34699207 (National Institute On Drug Abuse?Intramural Research Program, 2021)
